The values below come from US20220040133A1.

The subject of one series is Human H460 NSCLC cells. As to the kind of experiment: Oral efficacy in human H460 NSCLC xenografts in mice. Format: in vivo. Particulars: H460 xenograft, CD1-Nu/Nu mice; oral gavage 100 mg/kg on day 8, 15, 22, 29; vs 5% dextrose or untreated; FIG. 1. The method, then:
Human H460 NSCLC cells were obtained from American Type Cell Culture (ATCC) (catalog no. HTB-177, Manassas, Va.). These cells tested negative for viral contamination using the Mouse Antibody Production (MAP) test, performed by Charles River Labs Molecular Division, upon the receipt of the tumor cells from ATCC. The tumor cells were maintained at 37° C. in a humidified 5% CO2 atmosphere in T225 tissue culture flasks containing 50 mL of Roswell Park Memorial Institute (RPMI)-1640 solution with 10% Fetal Bovine Serum (FBS) and 2 mM L-glutamine. Cells were split at a ratio of 1:10 every 2-3 days by trypsinization and resuspended in fresh medium in a new flask. Cells were harvested for experiments in the same way at 70-90% confluency.
CD1-Nu/Nu female mice, ˜4-6 weeks old were obtained from Charles River Laboratories. Mice were housed 5 to a cage in a micro-isolator room in the Department of Animal Laboratory Research of New York State University (SUNY) at Stony Brook. Light-dark cycles were 12 h each daily, with light from 7 a.m. to 7 p.m. […]
An acclimation period of 7 days was allowed between the arrival of the animal at the study site before tumor inoculation and experimentation. […] Tumor dimensions (length and width) were measured daily before, during and after treatment (using Vernier calipers) and the tumor volume was calculated using the prolate ellipsoid formula: (length×width^2)/2. […]

Series [1] has as its system BxPC3 pancreatic cancer cells. As to the kind of experiment: Oral efficacy in human BxPC3 pancreatic cancer xenografts in mice. Format: in vivo. Set-up: dose or concentration left out as unconfirmed. Particulars: BxPC3 xenograft, CD-1 nude mice; oral dose for 4 weeks; FIG. 2. How it is done:
CD1-Nu/Nu female mice, ˜4-6 weeks old were obtained from Charles River Laboratories. Mice were housed 5 to a cage in a micro-isolator room in the Department of Animal Laboratory Research of New York State University (SUNY) at Stony Brook. Light-dark cycles were 12 h each daily, with light from 7 a.m. to 7 p.m. Food (Purina Rodent Chow) and water (distilled sterile-filtered water, pH 7) were provided ad libitum. Protocols and procedures were according to the rules of and approved by the SUNY Institutional Animal Care and Use Committee (IACUC).
An acclimation period of 7 days was allowed between the arrival of the animal at the study site before tumor inoculation and experimentation. Mice were inoculated subcutaneously (SC) in the right flank with 2×10^6 human H460 NSCLC or BxPC3 pancreatic cancer cells that were suspended in 0.1 mL of Dulbeco's Phosphate Buffered Salt (PBS) solution using a 1 cc syringe with a 27⅝ gauge needle. Tumor dimensions (length and width) were measured daily before, during and after treatment (using Vernier calipers) and the tumor volume was calculated using the prolate ellipsoid formula: (length×width^2)/2. Treatment with test or control articles began 8 days post tumor cell implantation when the tumor was approximately 300 mm^3.
A similar study was conducted in CD-1 nude mice (n=9) inoculated with 2×10^6 BxPC-3 cells. […]
(In general: A xenograft is tissue or cells of one species grown in another, often human tumour cells in immunodeficient mice.)

The subject of the next series is MFL2 cells. In words: Survival of C57Bl/6 mice with MFL2 syngeneic AML tumors. Format: in vivo. How it is done: C57Bl/6 mice were injected into their tail veins with 1 million MFL2 cells (Pardee, T. S. et al., Experimental Hematology, 2011, 39, 473-485) on Day 0 and beginning on Day 7, upon confirmation of engraftment by bioluminescence imaging, were treated by gavage with CPI-613 (300 mg/kg daily except weekends of a 50 mg/mL solution in 0.05 N NaOH in 5% dextrose, adjusted to pH 7.5-8 with 4% glacial acetic acid; 1 animal for the chloroquine experiment), intraperitoneally (IP) with chloroquine (200 μL (ca. 100 mg/kg) daily except weekends of a 10 mg/mL solution in PBS; Chlr; 3 animals), orally with metformin (1 mg/mL in the drinking water with ad lib access), or with a combination of CPI-613 (300 mg/kg daily gavage as above) and either chloroquine (200 μL daily IP as above; 4 animals) or metformin (1 mg/mL ad lib in drinking water as above) and followed for survival. Control animals (1 animal in chloroquine experiment) received both oral and IP vehicles. P value was determined by log rank test.

In the next series the test system is Baf3-p210 cells. As to the kind of experiment: Survival of Balb/c mice with Baf3-p210 syngeneic ALL tumors. Format: in vivo. Particulars: CPI-613 250 mg/kg gavage once daily combined with doxorubicin 3 mg/kg IP for three days; compared to doxorubicin alone; FIG. 4. The method, then:
Balb/c mice were injected into their tail veins with 1 million Baf3-p210 cells on Day 0 and beginning on Day 3, upon confirmation of engraftment by bioluminescence imaging, were treated with saline (control), doxorubicin (3 mg/kg IP in 200 μL PBS), or doxorubicin (3 mg/kg IP in 200 μL PBS) plus CPI-613 (250 mg/kg gavage of a 25 mg/mL solution of CPI-613 in 0.05 N NaOH in 5% dextrose, adjusted to pH 7.5-8 with 4% glacial acetic acid). and followed for survival. Doxorubicin was administered once daily for three consecutive days, and CPI-613 was administered once daily until death. P value was determined by log rank test.

The conditions of series [2]: mouse, in vivo.
The conditions of series [3]: after IV dosing; Pardee et al. 2014; cited from earlier work.
Series [4] deals with metastatic pancreatic adenocarcinoma. Particulars: combined with modified FOLFIRINOX, cited from earlier work.
Series [5] concerns myelodysplastic syndrome (MDS), acute myeloid leukemia (AML), Burkitt lymphoma, and cutaneous T-cell lymphoma (CTCL). The note with it: IV, days 1 and 4 of weeks 1, 2, 3 of a 4 week cycle, 840 mg/m^2 to 2940 mg/m^2 daily; cited from earlier work.
The subject of series [6] is relapsed or refractory T-cell lymphoma. The note with it: IV, days 1-4, 8, 11, 15, 18 of a 4 week cycle, 2000 mg/m^2 to 2750 mg/m^2, combined with bendamustine 90 mg/m^2; cited from earlier work.

`O=C(O)CCCCC(CCSCc1ccccc1)SCc1ccccc1` (stereo not drawn): the “tumor growth (tumor volume)” value was “grew much more slowly” in the series on Human H460 NSCLC cells and “especially pronounced” in [1]. In addition, the survival entry in the series with MFL2 cells (CPI-613 300 mg/kg gavage combined with chloroquine ca. 100 mg/kg IP daily except weekends, FIG. 3A) is on record as “significantly prolongs survival”; in the series with MFL2 cells (CPI-613 300 mg/kg gavage combined with metformin 1 mg/mL in drinking water, FIG. 3B), “significantly prolongs survival”; in the series with MFL2 cells (CPI-613 300 mg/kg gavage daily except weekends from Day 7, FIGS. 3A, 3B), “significantly prolongs survival”; with Baf3-p210 cells, “significantly prolongs survival”. For the same compound, in series [2], the “oral bioavailability (in words)” value is “orally bioavailable”. Moreover, the half-life (usually how long it takes for the measured level to halve) in series [3] is 1 to 2 h. Also, in series [4] (IV 500 mg/m^2 on days 1 and 3 of a two week cycle), the objective response was 11 of 18. For the same compound, the maximum tolerated dose in series [4] (IV, days 1 and 3 of a two week cycle) was 500 mg/m^2. Besides, the efficacy in patients result in [5] and in [6] was “showed efficacy” throughout.
